From patent US20140128606A1, “ANTIPRURITIC AGENT” (Toray Industries, Inc., priority 2011, published 2014)
Where a name gives a salt, the structure may show the parent alone.

Key:
[1] = tested on: substance P-induced scratching behavior; assay: Inhibitory effect on substance P-induced scratching behavior in mice (MicroAct automatic detection); type: in vivo, mouse; conditions: substance P 250 nmol/site; for Number of scratching behavior (means ± standard error): i.p., counted for 15 minutes
Excerpt: Substance P-induced scratching behavior in mice which is an intractable pruritus model was induced by the method described in a known document (Togashi et al., European Journal of Pharmacology, 2002, Vol. 435, p. 259 and the like). Further, evaluation of the scratching behavior was objectively carried out by automatic detection using MicroAct (NeuroScience, Inc.) based on the method described in a known document (Hashimoto et al., Allergology International, 2004, Vol. 53, p. 349).
More particularly, at least five days before the evaluation of drug effect, neodymium magnets (diameter: 1 mm, length: 3 mm) coated with Parafilm were subcutaneously inserted into the insteps of both hind limbs of 5 to 7 week-old male ICR mouse (Japan SLC, Inc.) under isoflurane anesthesia. One or two days before the day of the evaluation of drug effect, the hair of the rostral part of the back of the mouse was shaved with a hair clipper under isoflurane anesthesia. At least one hour before the start of the measurement of the number of scratching behavior, each mouse (6 to 8 weeks old) was individually placed in a chamber for measurement (diameter: 11 cm, height: 18 cm) for acclimation. After the acclimation, substance P (5 mmol/L) or phosphate-buffered saline (hereinafter referred to as PBS) as a solvent thereof was intradermally administered (0.05 mL/site) into the rostral part of the back, and the measurement of the number of scratching behavior was started immediately after the administration. The number of scratching behavior was recorded by amplifying electric current induced by the movement of the magnets inserted in the hind limbs in a round coil surrounding the chamber for measurement. The measurement was carried out under unattended environment, and the evaluation of the drug effect was carried out by using the number of scratching behavior occurred for 15 minutes after the start of the measurement as an index.
A test compound or a solvent thereof was administered in an amount of 10 mL/kg 30 to 60 minutes before the start of the measurement of the number of scratching behavior. Varenicline tartrate (Tocris Bioscience) was dissolved in PBS and intraperitoneally administered in a dose of 1, 3 or 10 mg/kg 60 minutes before the start of the measurement of the number of scratching behavior. N-(1-azabicyclo[2.2.2]oct-3(R)-yl)-4-chlorobenzamide hydrochloride (PNU-282987) hydrate (Sigma-Aldrich) was dissolved in PBS and intraperitoneally administered in a dose of 0.3 or 1 mg/kg 45 minutes before the start of the measurement of the number of scratching behavior. The compound of Reference Example 1 was dissolved in PBS and intraperitoneally administered in a dose of 0.1 or 0.3 mg/kg 30 minutes before the start of the measurement of the number of scratching behavior. The compound of Reference Example 2 was dissolved in PBS and intraperitoneally administered in a dose of 1, 3, or 10 mg/kg 45 minutes before the start of the measurement of the number of scratching behavior. The compound of Reference Example 3 was dissolved in distilled water and orally administered in a dose of 1, 3, or 10 mg/kg 30 minutes before the start of the measurement of the number of scratching behavior. The compound of Reference Example 4 was dissolved in PBS and intraperitoneally administered in a dose of 1, 3, or 10 mg/kg 45 minutes before the start of the measurement of the number of scratching behavior. The compound of Reference Example 5 was dissolved in PBS and intraperitoneally administered in a dose of 1, 3, or 10 mg/kg 30 minutes before the start of the measurement of the number of scratching behavior. The compound of Reference Example 6 was dissolved in PBS and intraperitoneally administered in a dose of 1, 3, or 10 mg/kg, 30 minutes before the start of the measurement of the number of scratching behavior. […]

[2] = tested on: substance P-induced scratching behavior; assay: Effect of nicotinic acetylcholine receptor antagonist (mecamylamine hydrochloride) on inhibition of substance P-induced scratching behavior by varenicline; type: in vivo, mouse; conditions: varenicline tartrate 3 mg/kg + mecamylamine hydrochloride 3 mg/kg, i.p., 60 minutes before; substance P 250 nmol/site
Protocol: The induction and measurement of the number of substance P-induced scratching behavior were carried out by the same method as described in Example 1.
Varenicline tartrate (0.3 mg/mL, Tocris Bioscience), mecamylamine hydrochloride (0.3 mg/mL, Tocris Bioscience), a mixed solution of varenicline tartrate and mecamylamine hydrochloride (both 0.3 mg/mL), or PBS which was a solvent thereof, was intraperitoneally administered in an amount of 10 mL/kg 60 minutes before the start of the measurement of the number of scratching behavior.
With regard to statistical processing, Student's t-test was performed when variances were homogeneity by F-test, and Aspin-Welch test was performed when variances were heterogeneity. A level of significance was set to 5% (two-tailed).
The vertical axis indicates the number of scratching behavior occurred for 15 minutes (mean±standard error, n=5 to 8). […]

c1cnc2cc3c(cc2n1)C1CNCC3C1 [Varenicline tartrate, 7,8,9,10-tetrahydro-6H-6,10-methanopyrazino[2,3-h][3]benzazepine, reference compound]
inhibition at 1 mg/kg ([1]; Mus musculus, ip, 1 mg/kg, read-out: Inhibition rate): 15%
inhibition at 3 mg/kg ([1]; Mus musculus, ip, 3 mg/kg, read-out: Inhibition rate): 64%
inhibition at 10 mg/kg ([1]; Mus musculus, ip, 10 mg/kg, read-out: Inhibition rate): 101%
Number of scratching behavior (means ± standard error) ([1]; 1 mg/kg): 103 ± 19
Number of scratching behavior (means ± standard error) ([1]; 3 mg/kg): 54 ± 7
Number of scratching behavior (means ± standard error) ([1]; 10 mg/kg): 17 ± 3
Effect of inhibiting the substance P-induced scratching behavior when used in combination with mecamylamine hydrochloride [2]: completely disappeared
